According to ChEMBL document CHEMBL1201862, “PubChem BioAssay data set” (2004):
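Dose response: 5 concentrations. Exposure: 48 h. Format: 96-well plates. Endpoint: linear interpolation; highest concentration if not reached. At the GI50, growth is halved.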 Activity calls are given as the source filed them. Rule as the data show it: active = GI50 up to about 1.1 µM and inactive = higher.

How the values were obtained:
Test in all cases: growth of human tumour cells (NCI), 48 h
HCC 2998 = system: HCC 2998
HL-60 = system: HL-60
HOP-62 = system: HOP-62
HT-29 = system: HT-29
K562 = system: K562
LOX IMVI = system: LOX IMVI
MOLT-4 = system: MOLT-4
NCI-H460 = system: NCI-H460
OVCAR-5 = system: OVCAR-5
OVCAR-8 = system: OVCAR-8
RPMI-8226 = system: RPMI-8226
RXF 393 = system: RXF 393
SK-MEL-28 = system: SK-MEL-28
SK-MEL-5 = system: SK-MEL-5
SNB-75 = system: SNB-75
UACC-257 = system: UACC-257
UACC-62 = system: UACC-62
NCI-H226 = system: NCI-H226
SR = system: SR

Measured: GI50

CC(C)N1CCOC(c2ccc(O)c(O)c2)C1 (stereo not given)
inactive: HCC 2998 > 100 µM | HL-60 > 100 µM | HOP-62 > 100 µM | HT-29 > 100 µM | K562 > 100 µM | LOX IMVI > 100 µM | MOLT-4 > 100 µM | NCI-H460 > 100 µM | OVCAR-5 > 100 µM | OVCAR-8 > 100 µM | RPMI-8226 > 100 µM | RXF 393 > 100 µM | SK-MEL-28 > 100 µM | SK-MEL-5 > 100 µM | SNB-75 > 100 µM | UACC-257 > 100 µM | UACC-62 > 100 µM

CC1CCCP(=O)(c2ccccc2)CCC1 (stereo not given)
inactive: HCC 2998 > 100 µM | HL-60 > 100 µM | HOP-62 > 100 µM | HT-29 > 100 µM | K562 > 100 µM | LOX IMVI > 100 µM | MOLT-4 > 100 µM | NCI-H460 > 100 µM | OVCAR-5 > 100 µM | OVCAR-8 > 100 µM | RPMI-8226 > 100 µM | RXF 393 > 100 µM | SK-MEL-28 > 100 µM | SK-MEL-5 > 100 µM | SNB-75 > 100 µM | UACC-257 > 100 µM | UACC-62 > 100 µM

NC(=S)N/N=C1/C(=O)N(c2ccc(Cl)cc2Cl)C(=O)C(=O)C1c1nc2ccccc2s1 (stereo not given)
inactive: HCC 2998 > 100 µM | HOP-62 > 100 µM | HT-29 > 100 µM | K562 > 100 µM | LOX IMVI > 100 µM | MOLT-4 52.1 µM | NCI-H226 > 100 µM | NCI-H460 > 100 µM | OVCAR-5 > 100 µM | OVCAR-8 > 100 µM | RPMI-8226 > 100 µM | RXF 393 > 100 µM | SK-MEL-28 > 100 µM | SK-MEL-5 > 100 µM | SNB-75 > 100 µM | UACC-257 > 100 µM | UACC-62 > 100 µM

N#CC1(Cc2ccccc2[N+](=O)[O-])c2ccccc2C2C(N1C(=O)c1ccccc1)C2(Cl)Cl (stereo not given)
inactive: HCC 2998 3.76 µM | HT-29 > 100 µM | K562 > 100 µM | LOX IMVI > 100 µM | MOLT-4 > 100 µM | NCI-H226 > 100 µM | NCI-H460 > 100 µM | OVCAR-5 > 100 µM | OVCAR-8 > 100 µM | RXF 393 > 100 µM | SK-MEL-28 > 100 µM | SK-MEL-5 > 100 µM | SNB-75 52.6 µM | UACC-257 > 100 µM | UACC-62 > 100 µM

C[N+](C)(C)CC(=O)N/N=C(\C(=O)Nc1ccc(Cl)cc1)C1C(=O)N(c2ccccc2)N=C1N (stereo not given)
inactive: HCC 2998 > 100 µM | HL-60 > 100 µM | HOP-62 > 100 µM | HT-29 > 100 µM | K562 > 100 µM | LOX IMVI > 100 µM | MOLT-4 > 100 µM | NCI-H460 > 100 µM | OVCAR-5 > 100 µM | OVCAR-8 > 100 µM | RPMI-8226 > 100 µM | RXF 393 > 100 µM | SK-MEL-28 > 100 µM | SK-MEL-5 > 100 µM | SNB-75 > 100 µM | UACC-257 > 100 µM | UACC-62 > 100 µM

N#CC(C(=O)/C(=N/NC(=O)c1ccccc1O)C(C#N)c1ccccc1)c1ccccc1 (stereo not given)
inactive: HCC 2998 > 100 µM | HOP-62 > 100 µM | HT-29 > 100 µM | LOX IMVI > 100 µM | NCI-H226 > 100 µM | NCI-H460 > 100 µM | OVCAR-8 > 100 µM | RPMI-8226 > 100 µM | RXF 393 > 100 µM | SK-MEL-28 > 100 µM | SNB-75 > 100 µM | UACC-257 > 100 µM | UACC-62 > 100 µM

Cc1nc(N)sc1C(=O)/C=C/c1ccc([N+](=O)[O-])cc1
inactive: HCC 2998 > 100 µM | HL-60 > 100 µM | HOP-62 > 100 µM | HT-29 > 100 µM | K562 > 100 µM | LOX IMVI > 100 µM | MOLT-4 > 100 µM | NCI-H460 > 100 µM | OVCAR-5 > 100 µM | OVCAR-8 > 100 µM | RPMI-8226 > 100 µM | RXF 393 > 100 µM | SK-MEL-28 > 100 µM | SK-MEL-5 > 100 µM | SNB-75 64.6 µM | UACC-257 > 100 µM | UACC-62 > 100 µM

CCOC(=O)c1c2ccc(/C=C/C(=O)OC)ccc-2c(C(=O)OCC)c1N
inactive: HCC 2998 > 100 µM | HL-60 > 100 µM | HT-29 > 100 µM | K562 > 100 µM | LOX IMVI > 100 µM | MOLT-4 > 100 µM | NCI-H226 > 100 µM | NCI-H460 > 100 µM | OVCAR-5 > 100 µM | RXF 393 > 100 µM | SK-MEL-28 1.62 µM | SK-MEL-5 > 100 µM | SNB-75 > 100 µM | UACC-257 > 100 µM | UACC-62 > 100 µM

NC(=S)N/N=C/C(=C/Nc1ccccc1)[N+](=O)[O-]
inactive: HL-60 > 100 µM | HOP-62 > 100 µM | HT-29 > 100 µM | K562 > 100 µM | LOX IMVI > 100 µM | NCI-H226 53 µM | OVCAR-5 > 100 µM | OVCAR-8 > 100 µM | RPMI-8226 > 100 µM | RXF 393 > 100 µM | SK-MEL-28 > 100 µM | SNB-75 > 100 µM | UACC-257 > 100 µM | UACC-62 > 100 µM

O=C(Nc1cc(Cl)cc(Cl)c1)/C(Cc1nc2ccccc2nc1O)=N/NC(=O)c1ccncc1
inactive: HCC 2998 > 100 µM | HL-60 > 100 µM | HOP-62 > 100 µM | K562 > 100 µM | LOX IMVI > 100 µM | MOLT-4 > 100 µM | NCI-H460 > 100 µM | OVCAR-5 67 µM | OVCAR-8 > 100 µM | RPMI-8226 > 100 µM | SK-MEL-5 > 100 µM | UACC-257 > 100 µM | UACC-62 > 100 µM

O=C(/C=C/c1ccc(Cl)cc1)c1ccc(Cl)c(Cl)c1
inactive: HCC 2998 30.3 µM | HL-60 3.44 µM | HOP-62 22 µM | HT-29 48 µM | K562 21.7 µM | LOX IMVI 15.2 µM | MOLT-4 20.5 µM | NCI-H226 14 µM | NCI-H460 34.6 µM | OVCAR-5 > 10 µM | OVCAR-8 20.6 µM | RPMI-8226 2.95 µM | RXF 393 15.5 µM | SK-MEL-28 17.3 µM | SK-MEL-5 18.1 µM | SNB-75 19.6 µM | UACC-257 29.6 µM | UACC-62 23.7 µM

COC(=O)[C@]12CCC(C)[C@H](C)[C@H]1C1=CCC3[C@@]4(C)CC[C@H](OC(C)=O)C(C)(C)C4CC[C@@]3(C)C1(C)C(O)C2 (stereo not given in full)
inactive: HCC 2998 > 100 µM | HOP-62 > 100 µM | HT-29 > 100 µM | K562 89.1 µM | LOX IMVI 74 µM | MOLT-4 86.5 µM | NCI-H226 27.1 µM | NCI-H460 > 100 µM | OVCAR-5 > 100 µM | OVCAR-8 > 100 µM | RPMI-8226 53.7 µM | SK-MEL-28 > 100 µM | SK-MEL-5 > 100 µM | SNB-75 45.2 µM | SR > 100 µM | UACC-257 > 100 µM | UACC-62 > 100 µM
